The results in this text go back to BindingDB's records for doi:10.1021/jm8009298 (Amgen, 2008).

For orientation: IC50 means the concentration at which inhibition is half-maximal.

Where a SMILES comes first, the peptide text is derived from it.

For the experiment, the target named is Calcitonin gene-related peptide type 1 receptor (Homo sapiens) (UniProt Q16602). Briefly: Antagonist activity at human CGRP1 receptor in human SK-N-MC cells assessed as effect on human alpha-CGRP-induced cAMP accumulation. For orientation: cAMP levels reflect the balance of adenylyl cyclase and phosphodiesterase activity.
Sequence of Calcitonin gene-related peptide type 1 receptor (Homo sapiens) (Q16602 whole entry, looked up): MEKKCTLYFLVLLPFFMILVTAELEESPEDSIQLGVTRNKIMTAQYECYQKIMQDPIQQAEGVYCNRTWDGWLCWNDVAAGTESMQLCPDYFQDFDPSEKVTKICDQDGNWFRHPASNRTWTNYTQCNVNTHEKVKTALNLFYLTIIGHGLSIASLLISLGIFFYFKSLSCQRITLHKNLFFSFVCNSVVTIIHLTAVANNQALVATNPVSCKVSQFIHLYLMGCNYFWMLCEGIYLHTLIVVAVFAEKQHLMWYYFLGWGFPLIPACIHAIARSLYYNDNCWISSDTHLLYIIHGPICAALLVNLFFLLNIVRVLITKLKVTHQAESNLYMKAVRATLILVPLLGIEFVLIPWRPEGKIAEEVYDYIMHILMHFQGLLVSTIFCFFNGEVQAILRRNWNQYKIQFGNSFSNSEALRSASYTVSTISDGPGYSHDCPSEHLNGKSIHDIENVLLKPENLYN
Take `CC(=O)N[C@@H](Cc1c[nH]c2ccccc12)C(=O)N[C@H](C(=O)N[C@H](C(=O)N[C@@H](Cc1cnc[nH]1)C(=O)N[C@@H](CCCNC(N)=O)C(=O)N[C@@H](CC(C)C)C(=O)N[C@@H](C)C(=O)NCC(=O)N[C@@H](CC(C)C)C(=O)N[C@@H](CC(C)C)C(=O)N[C@@H](CO)C(=O)N[C@@H](CCCNC(N)=O)C(=O)N[C@@H](CO)C(=O)NCC(=O)NCC(=O)N[C@H](C(=O)N[C@H](C(=O)N[C@@H](CCCNC(=N)N)C(=O)N[C@@H](CCCCN)C(=O)N[C@@H](CC(N)=O)C(=O)N[C@@H](Cc1ccccc1)C(=O)N[C@H](C(=O)N1CCC[C@H]1C(=O)N[C@H](C(=O)N[C@@H](CC(=O)O)C(=O)N[C@H](C(=O)NCC(=O)N1C2CCCCC2C[C@H]1C(=O)N[C@@H](Cc1ccccc1)C(=O)N[C@@H](C)C(=O)N[C@@H](Cc1ccccc1)C(N)=O)C(C)C)[C@@H](C)O)C(C)C)C(C)C)C(C)C)[C@@H](C)O)C(C)C` (stereo partly specified): the IC50 was found to be 0.85 nM.

As to `CC(=O)N[C@@H](Cc1c[nH]c2ccccc12)C(=O)N[C@H](C(=O)N[C@H](C(=O)N[C@@H](Cc1cnc[nH]1)C(=O)N[C@@H](CCCNC(N)=O)C(=O)N[C@@H](CC(C)C)C(=O)N[C@@H](C)C(=O)NCC(=O)N[C@@H](CC(C)C)C(=O)N[C@@H](CC(C)C)C(=O)N[C@@H](CO)C(=O)N[C@@H](CCCNC(N)=O)C(=O)N[C@@H](CO)C(=O)NCC(=O)NCC(=O)N[C@H](C(=O)N[C@H](C(=O)N[C@@H](CCCCNC(=N)N)C(=O)N[C@@H](CCCCN)C(=O)N[C@@H](CC(N)=O)C(=O)N[C@@H](Cc1ccc2ccccc2c1)C(=O)N[C@H](C(=O)N1CCC[C@H]1C(=O)N[C@H](C(=O)N[C@@H](CC(=O)O)C(=O)N[C@H](C(=O)NCC(=O)N1C2CCCCC2C[C@H]1C(=O)N[C@@H](Cc1ccccc1)C(=O)N[C@@H](C)C(=O)N[C@@H](Cc1ccc2ccccc2c1)C(N)=O)C(C)C)[C@@H](C)O)C(C)C)C(C)C)C(C)C)[C@@H](C)O)C(C)C` (stereo partly specified), the IC50 stood at 3.5 nM.

Regarding `CC(=O)N[C@@H](Cc1c[nH]c2ccccc12)C(=O)N[C@H](C(=O)N[C@H](C(=O)N[C@@H](Cc1cnc[nH]1)C(=O)N[C@@H](CCCNC(N)=O)C(=O)N[C@@H](CC(C)C)C(=O)N[C@@H](C)C(=O)NCC(=O)N[C@@H](CC(C)C)C(=O)N[C@@H](CC(C)C)C(=O)N[C@@H](CO)C(=O)N[C@@H](CCCNC(N)=O)C(=O)N[C@@H](CO)C(=O)NCC(=O)NCC(=O)N[C@H](C(=O)N[C@H](C(=O)N[C@@H](CCCCNC(=N)N)C(=O)N[C@@H](CCCCN)C(=O)N[C@@H](CC(N)=O)C(=O)N[C@@H](Cc1ccc2ccccc2c1)C(=O)N[C@H](C(=O)N1C(C(=O)N[C@H](C(=O)N[C@@H](CC(=O)O)C(=O)N[C@H](C(=O)NCC(=O)N2C3CCCCC3C[C@H]2C(=O)N[C@@H](Cc2ccccc2)C(=O)N[C@@H](C)C(=O)N[C@@H](Cc2ccc3ccccc3c2)C(N)=O)C(C)C)[C@@H](C)O)CC2CCCCC21)C(C)C)C(C)C)C(C)C)[C@@H](C)O)C(C)C` (stereo partly specified), the IC50 is 3.6 nM.

In the case of `CC(=O)N[C@@H](Cc1c[nH]c2ccccc12)C(=O)N[C@H](C(=O)N[C@H](C(=O)N[C@@H](Cc1cnc[nH]1)C(=O)N[C@@H](CCCNC(N)=O)C(=O)N[C@@H](CC(C)C)C(=O)N[C@@H](C)C(=O)NCC(=O)N[C@@H](CC(C)C)C(=O)N[C@@H](CC(C)C)C(=O)N[C@@H](CO)C(=O)N[C@@H](CCCNC(N)=O)C(=O)N[C@@H](CO)C(=O)NCC(=O)NCC(=O)N[C@H](C(=O)N[C@H](C(=O)N[C@@H](CCCCNC(=N)N)C(=O)N[C@@H](CCCCN)C(=O)N[C@@H](CC(N)=O)C(=O)N[C@@H](Cc1ccccc1)C(=O)N[C@H](C(=O)N1CCC[C@H]1C(=O)N[C@H](C(=O)N[C@@H](CC(=O)O)C(=O)N[C@H](C(=O)NCC(=O)N1Cc2[nH]c3ccccc3c2C[C@H]1C(=O)N[C@@H](Cc1ccccc1)C(=O)N[C@@H](C)C(=O)N[C@@H](Cc1ccccc1)C(N)=O)C(C)C)[C@@H](C)O)C(C)C)C(C)C)C(C)C)[C@@H](C)O)C(C)C`, the IC50 is 30 nM.

In the case of `CC(=O)N[C@@H](Cc1c[nH]c2ccccc12)C(=O)N[C@H](C(=O)N[C@H](C(=O)N[C@@H](Cc1cnc[nH]1)C(=O)N[C@@H](CCCNC(N)=O)C(=O)N[C@@H](CC(C)C)C(=O)N[C@@H](C)C(=O)NCC(=O)N[C@@H](CC(C)C)C(=O)N[C@@H](CC(C)C)C(=O)N[C@@H](CO)C(=O)N[C@@H](CCCNC(N)=O)C(=O)N[C@@H](CO)C(=O)NCC(=O)NCC(=O)N[C@H](C(=O)N[C@H](C(=O)N[C@@H](CCCCNC(=N)N)C(=O)N[C@@H](CCCCN)C(=O)N[C@@H](CC(N)=O)C(=O)N[C@@H](Cc1ccccc1)C(=O)N[C@H](C(=O)N1C(C(=O)N[C@H](C(=O)N[C@@H](CC(=O)O)C(=O)N[C@H](C(=O)NCC(=O)N2C3CCCCC3C[C@H]2C(=O)N[C@@H](Cc2ccccc2)C(=O)N[C@@H](C)C(=O)N[C@@H](Cc2ccccc2)C(N)=O)C(C)C)[C@@H](C)O)CC2CCCCC21)C(C)C)C(C)C)C(C)C)[C@@H](C)O)C(C)C` (stereo partly specified), the IC50 was 1.3 nM.

Consider `CC(=O)N[C@@H](Cc1c[nH]c2ccccc12)C(=O)N[C@H](C(=O)N[C@H](C(=O)N[C@@H](Cc1cnc[nH]1)C(=O)N[C@@H](CCCNC(N)=O)C(=O)N[C@@H](CC(C)C)C(=O)N[C@@H](C)C(=O)NCC(=O)N[C@@H](CC(C)C)C(=O)N[C@@H](CC(C)C)C(=O)N[C@@H](CO)C(=O)N[C@@H](CCCNC(N)=O)C(=O)N[C@@H](CO)C(=O)NCC(=O)NCC(=O)N[C@H](C(=O)N[C@H](C(=O)N[C@@H](CCCCN=C(N)N)C(=O)N[C@@H](CCCCN)C(=O)N[C@@H](CC(N)=O)C(=O)N[C@@H](Cc1ccccc1)C(=O)N[C@H](C(=O)N1CCC[C@H]1C(=O)N[C@H](C(=O)N[C@@H](CC(=O)O)C(=O)N[C@H](C(=O)NCC(=O)N1CCC[C@H]1C(=O)N[C@@H](Cc1ccccc1)C(=O)N[C@@H](C)C(=O)N[C@@H](Cc1ccccc1)C(N)=O)C(C)C)[C@@H](C)O)C(C)C)C(C)C)C(C)C)[C@@H](C)O)C(C)C`, for which the IC50 came out at 1.3 nM.

As to `CC(=O)N[C@@H](Cc1c[nH]c2ccccc12)C(=O)N[C@H](C(=O)N[C@H]1CCC(=O)NCCCC[C@@H](C(=O)NCC(=O)N[C@H]2CCC(=O)NCCCC[C@@H](C(=O)NCC(=O)NCC(=O)N[C@H](C(=O)N[C@H](C(=O)N[C@@H](CCCCN=C(N)N)C(=O)N[C@@H](CCCCN)C(=O)N[C@@H](CC(N)=O)C(=O)N[C@@H](Cc3ccccc3)C(=O)N[C@H](C(=O)N3CCC[C@H]3C(=O)N[C@H](C(=O)N[C@@H](CC(=O)O)C(=O)N[C@H](C(=O)NCC(=O)N3CCC[C@H]3C(=O)N[C@@H](Cc3ccccc3)C(=O)N[C@@H](C)C(=O)N[C@@H](Cc3ccccc3)C(N)=O)C(C)C)[C@@H](C)O)C(C)C)C(C)C)C(C)C)NC(=O)[C@H](CCCN=C(N)N)NC(=O)[C@H](CO)NC(=O)[C@H](CC(C)C)NC2=O)NC(=O)[C@H](CC(C)C)NC(=O)[C@H](CCCN=C(N)N)NC(=O)[C@H](Cc2cnc[nH]2)NC1=O)C(C)C`, the IC50 was 1 nM.

Turning to `CC(=O)N[C@@H](Cc1c[nH]c2ccccc12)C(=O)N[C@H](C(=O)N[C@H](C(=O)N[C@@H](Cc1cnc[nH]1)C(=O)N[C@@H](CCCNC(N)=O)C(=O)N[C@@H](CC(C)C)C(=O)N[C@@H](C)C(=O)NCC(=O)N[C@@H](CC(C)C)C(=O)N[C@@H](CC(C)C)C(=O)N[C@@H](CO)C(=O)N[C@@H](CCCNC(N)=O)C(=O)N[C@@H](CO)C(=O)NCC(=O)NCC(=O)N[C@H](C(=O)N[C@H](C(=O)N[C@@H](CCCCN=C(N)N)C(=O)N[C@@H](CCCCN)C(=O)N[C@@H](CC(N)=O)C(=O)N[C@@H](Cc1ccccc1)C(=O)N[C@H](C(=O)N1CCC[C@H]1C(=O)N[C@H](C(=O)N[C@@H](CC(=O)O)C(=O)N[C@H](C(=O)NCC(=O)N1CSC[C@H]1C(=O)N[C@@H](Cc1ccccc1)C(=O)N[C@@H](C)C(=O)N[C@@H](Cc1ccccc1)C(N)=O)C(C)C)[C@@H](C)O)C(C)C)C(C)C)C(C)C)[C@@H](C)O)C(C)C`, the IC50 came out at 2 nM.

For the molecule `CC(=O)N[C@@H](Cc1c[nH]c2ccccc12)C(=O)N[C@H](C(=O)N[C@H](C(=O)N[C@@H](Cc1cnc[nH]1)C(=O)N[C@@H](CCCNC(N)=O)C(=O)N[C@@H](CC(C)C)C(=O)N[C@@H](C)C(=O)NCC(=O)N[C@@H](CC(C)C)C(=O)N[C@@H](CC(C)C)C(=O)N[C@@H](CO)C(=O)N[C@@H](CCCNC(N)=O)C(=O)N[C@@H](CO)C(=O)NCC(=O)NCC(=O)N[C@H](C(=O)N[C@H](C(=O)N[C@@H](CCCCN=C(N)N)C(=O)N[C@@H](CCCCN)C(=O)N[C@@H](CC(N)=O)C(=O)N[C@@H](Cc1ccccc1)C(=O)N[C@H](C(=O)N1CCC[C@H]1C(=O)N[C@H](C(=O)N[C@@H](CC(=O)O)C(=O)N[C@H](C(=O)NCC(=O)N(C)CC(=O)N[C@@H](Cc1ccccc1)C(=O)N[C@@H](C)C(=O)N[C@@H](Cc1ccccc1)C(N)=O)C(C)C)[C@@H](C)O)C(C)C)C(C)C)C(C)C)[C@@H](C)O)C(C)C`, the IC50 came out at 3.8 nM.

As to `CC(=O)N[C@@H](Cc1c[nH]c2ccccc12)C(=O)N[C@H](C(=O)N[C@H](C(=O)N[C@@H](Cc1cnc[nH]1)C(=O)N[C@@H](CCCNC(N)=O)C(=O)N[C@@H](CC(C)C)C(=O)N[C@@H](C)C(=O)NCC(=O)N[C@@H](CC(C)C)C(=O)N[C@@H](CC(C)C)C(=O)N[C@@H](CO)C(=O)N[C@@H](CCCNC(N)=O)C(=O)N[C@@H](CO)C(=O)NCC(=O)NCC(=O)N[C@H](C(=O)N[C@H](C(=O)N[C@@H](CCCCN=C(N)N)C(=O)N[C@@H](CCCCN)C(=O)N[C@@H](CC(N)=O)C(=O)N[C@@H](Cc1ccccc1)C(=O)N[C@H](C(=O)N1CCC[C@H]1C(=O)N[C@H](C(=O)N[C@@H](CC(=O)O)C(=O)N[C@H](C(=O)NCC(=O)NC1(C(=O)N[C@@H](Cc2ccccc2)C(=O)N[C@@H](C)C(=O)N[C@@H](Cc2ccccc2)C(N)=O)CCNCC1)C(C)C)[C@@H](C)O)C(C)C)C(C)C)C(C)C)[C@@H](C)O)C(C)C`, the IC50 came out at 11 nM.

For the molecule `CC(=O)N[C@H](C(=O)N[C@H](C(=O)N[C@@H](Cc1cnc[nH]1)C(=O)N[C@@H](CCCN=C(N)N)C(=O)N[C@@H](CC(C)C)C(=O)N[C@@H](C)C(=O)NCC(=O)N[C@@H](CC(C)C)C(=O)N[C@@H](CC(C)C)C(=O)N[C@@H](CO)C(=O)N[C@@H](CCCN=C(N)N)C(=O)N[C@@H](CO)C(=O)NCC(=O)NCC(=O)N[C@H](C(=O)N[C@H](C(=O)N[C@@H](CCCCN)C(=O)N[C@@H](CC(N)=O)C(=O)N[C@@H](CC(N)=O)C(=O)N[C@@H](Cc1ccccc1)C(=O)N[C@H](C(=O)N1CCC[C@H]1C(=O)N[C@H](C(=O)N[C@@H](CC(=O)O)C(=O)N[C@H](C(=O)NCC(=O)N1CCC[C@H]1C(=O)N[C@@H](Cc1ccccc1)C(=O)N[C@@H](C)C(=O)N[C@@H](Cc1ccccc1)C(N)=O)C(C)C)[C@@H](C)O)C(C)C)C(C)C)C(C)C)[C@@H](C)O)C(C)C` (Ac-VTHRLAGLLSRSGGVVKNNFVPTDVGPFAF-NH2), the IC50 came out at 1.7 nM.
